Laboratory results as given in patent US20230172973A1, “METHODS AND COMPOSITIONS FOR TREATING AND COMBATTING TUBERCULOSIS” (THIRTY RESPIRATORY LIMITED, priority 2020, published 2023).

Tests used:
[1] = test system: SARS-CoV-2 clinical isolate; experiment: SARS-CoV-2 inhibition (virus yield reduction, TCID50 titration); assay type: cell-based
Procedure: At time 0 hr, Vero E6 cells were infected with virus in presence of the formulation or controls and incubated for 1 hour. After this incubation period the inoculum was removed and the cells were washed. Fresh formulation or controls were then added to the washed cells. At 24 hours post infection, Vero E6 cell supernatants were harvested and titrated, and the virus titration was incubated for 6 days prior to readout to determine any virus yield reduction. Separate tests were performed at four MOIs including 3.0 and 0.3, although only those two MOIs were titrated. The readout was by crystal violet (cell monolayer) staining, followed by CPE scoring.

[2] = test system: Vero E6 cells; settings: 2 hr and 24 hr

Row | SMILES | SARS-CoV-2 titre (FIG. 33, Run 1) ([1]; MOI 3.0, 24 hours incubation) | SARS-CoV-2 titre (FIG. 34, Run 2) ([1]; MOI 3.0 and MOI 0.3, 48 hours incubation) | In vitro antiviral action against SARS-CoV-2 (FIGS. 33 and 34) ([1]; Vero E6 cells, MOI 3.0 and 0.3) | Cytotoxicity on the LDH assay (FIG. 32) [2]
1 | CCN(CC)CCCC(C)Nc1ccnc2cc(Cl)ccc12 (stereo not shown) [chloroquine, Chloroquine phosphate] | limit of detection | limit of detection | – | –
2 | O=C(O)CC(O)(CC(=O)O)C(=O)O [citric acid pH 5.8, citric acid] | – | – | high in vitro antiviral action | low cytotoxicity
